For 1 molecule, IC50 results are on record in paper PMC6600574 (Molecules, 2019).

Test [1] in a line: DPPH radical scavenging assay. Type of test: biochemical. To be noted: DPPH in ethanol, 30 min. As to the method: Ascorbic acid was serially diluted to a concentration range of 0.78–100 µg/mL. Ethanol (10%) was used as a blank. Ninety microliters of a […] DPPH (2,2-diphenyl-1-picrylhydrazyl) in ethanol were added to each well. The plates were incubated for 30 min and covered in a layer of foil. Color controls (negative controls) were prepared in the exact same manner as above, but distilled water was added to each well instead of DPPH. The absorbances were measured at a wavelength of 515 nm using a BIO-TEK Power-Wave XS multiplate reader (BIO-TEK Instruments, Winooski, VT, USA). From the absorbances an IC50 value was determined.
Background: DPPH is a stable violet radical that fades when it is reduced.

Test [2] can be described thus: Nitric oxide scavenging assay (nitroprusside, Griess reagent). Type of test: biochemical. The note with it: 10 mM nitroprusside, 90 min, read-out: NO IC50. As to the method:
Ethanol (10%) was used as a blank. Nitroprusside (50 μL) at a concentration of 10 mM was added to all the wells. The plates were incubated for 90 min at room temperature. After incubation, Griess reagent (100 μL) was added to all the wells, except for the color controls (negative controls) where instead distilled water was added. The absorbances were read at a wavelength of 546 nm using a BIO-TEK Power-Wave XS multiplate reader. From the absorbances an IC50 value was determined.
(The Griess reaction detects nitrite, a stable product of nitric oxide.)

`O=C1O[C@H]([C@@H](O)CO)C(O)=C1O` [Ascorbic acid, reference compound]: the IC50 in test [1] amounted to 43.7 ± 1.12 µM; in test [2], 144 ± 3.3 µM.

What is called IC50 is the point on the concentration scale where inhibition reaches its midpoint.
